Measured values as given in article PMC11470957, “Principles of paralog-specific targeted protein degradation engaging the C-degron E3 KLHDC2” (Nature Communications, 2024).
Read-outs that look alike come from different tables or passages of the source.

Biological target: BRD2 (Homo sapiens, UniProt P25440)
Test: Western blot of BRD2 levels after cellular dosing
[1] = U2OS, read-out: BRD2 level, Western blot quantification (DMSO = 100), Fig S6d, U2OS KO/rescue Dose Response
[2] = read-out: BRD2 level, Western blot quantification (DMSO = 100), Fig S6e, PC3 KO/rescue Dose Response

Chain of BRD2 (P25440 whole entry): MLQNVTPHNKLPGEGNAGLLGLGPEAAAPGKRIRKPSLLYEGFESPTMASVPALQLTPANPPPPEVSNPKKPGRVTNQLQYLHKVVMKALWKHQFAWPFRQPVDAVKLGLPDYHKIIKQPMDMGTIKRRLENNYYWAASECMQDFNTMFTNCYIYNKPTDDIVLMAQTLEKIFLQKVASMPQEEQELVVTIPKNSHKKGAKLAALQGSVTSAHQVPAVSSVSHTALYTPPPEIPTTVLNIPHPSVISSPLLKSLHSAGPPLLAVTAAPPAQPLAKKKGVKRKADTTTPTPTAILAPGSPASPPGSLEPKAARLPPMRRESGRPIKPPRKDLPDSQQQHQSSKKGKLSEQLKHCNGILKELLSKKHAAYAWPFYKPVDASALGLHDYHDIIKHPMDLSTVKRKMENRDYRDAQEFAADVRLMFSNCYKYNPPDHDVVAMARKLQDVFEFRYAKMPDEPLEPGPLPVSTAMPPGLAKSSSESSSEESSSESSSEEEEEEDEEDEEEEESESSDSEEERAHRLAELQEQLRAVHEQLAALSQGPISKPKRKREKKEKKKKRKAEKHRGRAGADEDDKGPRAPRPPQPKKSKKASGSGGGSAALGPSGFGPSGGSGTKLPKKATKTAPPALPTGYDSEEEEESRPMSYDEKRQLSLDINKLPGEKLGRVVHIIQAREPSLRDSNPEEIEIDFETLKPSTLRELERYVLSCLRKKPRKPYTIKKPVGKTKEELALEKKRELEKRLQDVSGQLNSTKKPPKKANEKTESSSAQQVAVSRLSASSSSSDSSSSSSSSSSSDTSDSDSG

## COC(=O)CNC(=O)Cc1csc(-c2ccc3cccc(OCCN4CCN(C(=O)C[C@@H]5N=C(c6ccc(Cl)cc6)c6c(sc(C)c6C)-n6c(C)nnc65)CC4)c3c2)n1 [SJ46420]
SK-BR-3, 4 h, read-out: BRD2 level relative to DMSO (100%), SKBR3, 5µM, 4hr, Fig S6g
  remaining activity at 5 µM: 83 ± 6.1%
SK-BR-3, 4 h, read-out: BRD2 level relative to DMSO (100%), SKBR3, 5µM, 4hr, Fig S6j
  remaining activity at 5 µM: 85 ± 7.3%
SK-BR-3, 4 h, read-out: BRD2 level, Western blot quantification (DMSO = 100), Fig S6g, SKBR3 Time course, 1 uM, 4hr
  remaining activity at 1 µM: 79.4%
SK-BR-3, 4 h, read-out: BRD2 level, Western blot quantification (DMSO = 100), Fig S6g, SKBR3 Time course, 5 uM, 4hr
  remaining activity at 5 µM: 79.5%
SK-BR-3, 8 h, read-out: BRD2 level relative to DMSO (100%), SKBR3, 1µM, 8hr, Fig S6g
  remaining activity at 1 µM: 81 ± 7.6%
SK-BR-3, 8 h, read-out: BRD2 level relative to DMSO (100%), SKBR3, 5µM, 8hr, Fig S6g
  remaining activity at 5 µM: 90 ± 9.8%
SK-BR-3, 8 h, read-out: BRD2 level, Western blot quantification (DMSO = 100), Fig S6g, SKBR3 Time course, 1 uM, 8hr
  remaining activity at 1 µM: 76.3%
SK-BR-3, 8 h, read-out: BRD2 level, Western blot quantification (DMSO = 100), Fig S6g, SKBR3 Time course, 5 uM, 8hr
  remaining activity at 5 µM: 97.9%
SK-BR-3, read-out: BRD2 level, Western blot quantification (DMSO = 100), Fig S6i, SKBR3, 5uM
  remaining activity at 5 µM: 90.6%
U2OS KO/Rescue, 24 h dose
  BRD2 Dmax: ~ 100%
U2OS, 2 h, read-out: BRD2 level relative to DMSO (100%), U2OS, 5µM, 2hr, Fig S6h
  remaining activity at 5 µM: 102 ± 6.9%
U2OS, 2 h, read-out: BRD2 level, Western blot quantification (DMSO = 100), Fig S6h, U2OS Time course, 5uM, 2hr
  remaining activity at 5 µM: 108%
U2OS, 4 h, read-out: BRD2 level relative to DMSO (100%), U2OS, 5µM, 4hr, Fig S6h
  remaining activity at 5 µM: 104 ± 6.4%
U2OS, 4 h, read-out: BRD2 level, Western blot quantification (DMSO = 100), Fig S6h, U2OS Time course, 5uM, 4hr
  remaining activity at 5 µM: 109%
U2OS, 8 h, read-out: BRD2 level relative to DMSO (100%), U2OS, 5µM, 8hr, Fig S6i
  remaining activity at 5 µM: 120 ± 3.4%
U2OS, 8 h, read-out: BRD2 level relative to DMSO (100%), U2OS, 5µM, 8hr, Fig S6h
  remaining activity at 5 µM: 106 ± 8.4%
U2OS, 8 h, read-out: BRD2 level, Western blot quantification (DMSO = 100), Fig S6h, U2OS Time course, 5uM, 8hr
  remaining activity at 5 µM: 112%
U2OS, 24 h, read-out: BRD2 level relative to DMSO (100%), U2OS DC2KO (KLHDC2 knockout), 5µM, 24 h, Fig 6b
  remaining activity at 5 µM: 77 ± 2%
U2OS, 24 h, read-out: BRD2 level relative to DMSO (100%), U2OS KO/Rescue, 0.16µM, 24 h, Fig S6d
  remaining activity at 0.16 µM: 94 ± 6.9%
U2OS, 24 h, read-out: BRD2 level relative to DMSO (100%), U2OS KO/Rescue, 0.31µM, 24 h, Fig S6d
  remaining activity at 0.31 µM: 77 ± 6.6%
U2OS, 24 h, read-out: BRD2 level relative to DMSO (100%), U2OS KO/Rescue, 0.63µM, 24 h, Fig S6d
  remaining activity at 0.63 µM: 63 ± 3.8%
U2OS, 24 h, read-out: BRD2 level relative to DMSO (100%), U2OS KO/Rescue, 1µM + co-dosing 1µM MLN4924, 24 h, Fig 6d
  remaining activity at 1 µM: 350 ± 120%
U2OS, 24 h, read-out: BRD2 level relative to DMSO (100%), U2OS KO/Rescue, 1µM, 24 h, Fig 6c
  remaining activity at 1 µM: 88 ± 8.4%
U2OS, 24 h, read-out: BRD2 level relative to DMSO (100%), U2OS KO/Rescue, 1µM, 24 h, Fig 6d
  remaining activity at 1 µM: 68 ± 17%
U2OS, 24 h, read-out: BRD2 level relative to DMSO (100%), U2OS KO/Rescue, 1.3µM, 24 h, Fig S6d
  remaining activity at 1.3 µM: 54 ± 6.7%
U2OS, 24 h, read-out: BRD2 level relative to DMSO (100%), U2OS KO/Rescue, 2.5µM, 24 h, Fig S6d
  remaining activity at 2.5 µM: 37 ± 9.7%
U2OS, 24 h, read-out: BRD2 level relative to DMSO (100%), U2OS KO/Rescue, 5µM, 24 h, Fig S6d
  remaining activity at 5 µM: 12 ± 2.2%
U2OS, 24 h, read-out: BRD2 level relative to DMSO (100%), U2OS, 5µM, 24 h, Fig 6b
  remaining activity at 5 µM: 87 ± 5%
U2OS, 24 h, read-out: BRD2 level relative to DMSO (100%), U2OS, 5µM, 24hr, Fig S6h
  remaining activity at 5 µM: 77 ± 4.3%
U2OS, 24 h, read-out: BRD2 level, Western blot quantification (DMSO = 100), Fig S6h, U2OS Time course, 5uM, 24hr
  remaining activity at 5 µM: 79.8%
U2OS, read-out: BRD2 (DMSO = 100), U2OS KO/Rescue cells, Log SJ46420 (uM) 1.59176, Rep1, Rep2
  remaining activity at 1.59176 µM: 102%
U2OS, read-out: BRD2 (DMSO = 100), U2OS KO/Rescue cells, Log SJ46420 (uM) 1.89279, Rep1, Rep2
  remaining activity at 1.89279 µM: 99%
U2OS, read-out: BRD2 (DMSO = 100), U2OS KO/Rescue cells, Log SJ46420 (uM) 2.19382, Rep1, Rep2
  remaining activity at 2.19382 µM: 82.2%
U2OS, read-out: BRD2 (DMSO = 100), U2OS KO/Rescue cells, Log SJ46420 (uM) 2.49485, Rep1, Rep2
  remaining activity at 2.49485 µM: 66.6%
U2OS, read-out: BRD2 (DMSO = 100), U2OS KO/Rescue cells, Log SJ46420 (uM) 2.79588, Rep1, Rep2
  remaining activity at 2.79588 µM: 49.5%
U2OS, read-out: BRD2 (DMSO = 100), U2OS KO/Rescue cells, Log SJ46420 (uM) 3.09691, Rep1, Rep2
  remaining activity at 3.09691 µM: 30.5%
U2OS, read-out: BRD2 (DMSO = 100), U2OS KO/Rescue cells, Log SJ46420 (uM) 3.39794, Rep1, Rep2
  remaining activity at 3.39794 µM: 13.8%
U2OS, read-out: BRD2 (DMSO = 100), U2OS KO/Rescue cells, Log SJ46420 (uM) 3.69897, Rep1, Rep2
  remaining activity at 3.69897 µM: 1.16%
U2OS, read-out: BRD2 Dmax, U2OS KO/Rescue, 24 h dose
  Dmax: 99.3%
U2OS, read-out: BRD2 level, Western blot quantification (DMSO = 100), Fig 6b, U2OS, 5 uM
  remaining activity at 5 µM: 90.7%
U2OS, read-out: BRD2 level, Western blot quantification (DMSO = 100), Fig S6i, U2OS, 5uM
  remaining activity at 5 µM: 118%
[1]
  remaining activity at 0.156 µM: 83.3%
  remaining activity at 0.313 µM: 100%
  remaining activity at 0.625 µM: 81.2%
  remaining activity at 1.25 µM: 85.7%
U2OS, read-out: BRD2 level, Western blot quantification (DMSO = 100), Fig S6d, U2OS KO/rescue Dose Response, 2.5 uM
  remaining activity at 2.5 µM: 86.6%
U2OS, read-out: BRD2 level, Western blot quantification (DMSO = 100), Fig S6d, U2OS KO/rescue Dose Response, 5 uM
  remaining activity at 5 µM: 86.5%
read-out: BRD2 Dmax, PC3, 24 h dose
  Dmax: 19.5%
read-out: BRD2 level, Western blot quantification (DMSO = 100), Fig 6b, KO/Rescue, 5 uM
  remaining activity at 5 µM: 78.2%
[2]
  remaining activity at 0.156 µM: 99%
  remaining activity at 0.313 µM: 82.2%
  remaining activity at 0.625 µM: 66.6%
  remaining activity at 1.25 µM: 49.5%
read-out: BRD2 level, Western blot quantification (DMSO = 100), Fig S6e, PC3 KO/rescue Dose Response, 2.5 uM
  remaining activity at 2.5 µM: 30.5%
read-out: BRD2 level, Western blot quantification (DMSO = 100), Fig S6e, PC3 KO/rescue Dose Response, 5 uM
  remaining activity at 5 µM: 13.8%
read-out: BRD2 level, Western blot quantification (DMSO = 100), Fig S6e, PC3 KO/rescue Dose Response, 10uM
  remaining activity at 10 µM: 1.16%
